Data on one compound can be found in article PMC8018465, “Antimicrobial activities of a small molecule compound II-6s against oral streptococci” (Journal of Oral Microbiology, 2021).

Molecules are shown by their SMILES. A value given as a limit tells only on which side of the number the result lay.

The subject of data set [1] is S. mutans. Description: Time-kill assay. The class given is cell-based, Streptococcus mutans UA159. As to conditions: at MBC. Here is the method: (§1) The time- and dose-dependent killing capacities of II-6s were assessed by the method modified from that of Koo et al.. S. mutans was diluted to 1 × 10^7 CFU/ml in BHI broth containing test compounds or not, and incubated in 5% CO2 at 37°C. For the time-kill curve, the final concentration of II-6s and CHX was equivalent to their MBC. At 0, 0.5, 1, 2, 4, 6, 8 and 10 h, samples were serially diluted in PBS and 50 μl aliquots were spread onto BHI agar medium. For the dose-dependent killing curve, S. mutans was treated with different doses of II-6s and CHX for 5 min before diluted and spread. All plates were incubated anaerobically for 48 h followed by enumeration of CFU. The time-kill or dose-dependent killing curves were constructed by plotting the log10(CFU/ml) versus the incubation time or concentration. The experiment was performed in triplicates and repeated at least three times.

Data set [2] concerns S. mutans. The data set can be described thus: Dose-dependent killing assay. The class given is cell-based, Streptococcus mutans UA159. As to conditions: equivalent doses, 5-min exposure. The method, then:
as §1

The nature of data set [3]: In vitro cytotoxicity assay (CCK-8). The class given is cell-based, human. As to conditions: human, 5 min exposure. Here is the method: (§2) The cytotoxicity of II-6s was evaluated by the Cell Counting Kit-8 (CCK-8; Dojindo, Kumamoto, Japan) assay as described by Park et al.. Human gingival epithelial cells (HGE), human oral keratinocytes (HOK) and macrophages RAW264.7 (RAW264.7) were provided by the State Key Laboratory of Oral Diseases, Sichuan University, China. HGE, HOK and RAW264.7 were grown in Dulbecco’s modified Eagle’s medium (DMEM; GibcoTM, Invitrogen, Carlsbad, CA, USA) supplemented with 10% fetal bovine serum (FBS; Invitrogen) and 1% penicillin–streptomycin solution (Invitrogen) and cultured at 37°C in a humidified atmosphere containing 5% CO2. All cells were inoculated into 96 well plates at a density of 1 × 10^4 cells per well for 24 h and then treated with II-6s (0.98 to 500 μg/ml) for 5 min or 24 h. The positive control was treated with CHX (0.98 to 500 μg/ml) at the same time. After treatment, the wells were washed with sterile PBS and fresh medium was added. 10 μl of CCK-8 solution (10 μl) was added to each well and incubated for 1.5 h. The absorbance of each well was measured at the wavelength of 450 nm against a blank which contained medium only. Cell viability was calculated according to the following formula: percent viability = (A450 of treated group − A450 of blank control)/(A450 of negative control − A450 of blank control) × 100%. The experiment was conducted in triplicates and repeated three times.

The test system of data set [4] is Human gingival epithelial cells (HGE). Description: In vitro cytotoxicity assay (CCK-8). The settings on record: 24 h exposure. The class given is cell-based. Here is the method:
as §2

Data set [5] has as its system human oral keratinocytes (HOK). The data set can be described thus: In vitro cytotoxicity assay (CCK-8). The class given is cell-based. As to conditions: 24 h exposure. The method, then: as §2
For data set [6], the system named is methicillin-resistant Staphylococcus aureus (MRSA). The arrangement: method as in PMID 30940910. The settings on record: cited from earlier work.
Data set [7] has as its system methicillin-susceptible S. aureus. The arrangement: method as in PMID 30940910. The settings on record: cited from earlier work.

A word on the IC50: it is the concentration that inhibits the measured activity by half. A lower IC50 goes with inhibition by little substance. For `CC(C)(Cc1ccc2ccccc2c1)NC[C@H](O)CNc1cc(C(F)(F)F)cc(C(F)(F)F)c1` [II-6s, (S)-1-((3,5-bis(trifluoromethyl)phenyl)amino)-3-((2-methyl-1-(naphthalen-2-yl)propan-2-yl)amino)propan-2-ol], the “treatment time after which no visible colonies were observed on the plate” value in the data set with S. mutans [1] worked out at 8 h. Moreover, the “reduction of S. mutans” value in the data set with S. mutans [1] (within 2 h) was “approximately 3 log10 CFU/ml”. The “bactericidal activity in dose-dependent killing assay” value with S. mutans [2] is “better bactericidal activities than CHX”. Also, the IC50 at 5 min in data set [3] (human gingival epithelial cells (HGE)) and in data set [3] (human oral keratinocytes (HOK)) was more than 125 µg/mL in each case. For the same compound, the “IC50 (cytotoxicity), compared with CHX” value in data set [4] and in data set [5] was “higher than that of CHX” in each case. Moreover, the “antimicrobial activity against MRSA” value in data set [6] is listed as “decent antimicrobial activity”. Also, the “antimicrobial activity against methicillin-susceptible S. aureus” value in data set [7] is “decent antimicrobial activity”.
